Source: ChEMBL document CHEMBL1143572, “Virtual screening workflow development guided by the "receiver operating characteristic" curve approach. Application to high-throughput docking on metabotropic glutamate receptor subtype 4” (J Med Chem, 2005)

Legend:
[1] = target: T1, Metabotropic glutamate receptor 4 (Rattus norvegicus, UniProt P31423); test: Stimulation of [3H]phosphatidylinositol accumulation by rat Metabotropic glutamate receptor 4 co-expressed with Gqi9 protein in HEK 293 cells; Active; format: functional, cell-based, HEK293
[2] = target: T1, Metabotropic glutamate receptor 4; test: Stimulation of [3H]phosphatidylinositol accumulation by rat Metabotropic glutamate receptor 4 co-expressed with Gqi9 protein in HEK 293 cells; Inactive; format: functional, cell-based, HEK293
[3] = target: Metabotropic glutamate receptor 4 (Rattus norvegicus, UniProt P31423, D309A); test: Effective concentration against D309A mutant Metabotropic glutamate receptor 4
[4] = target: T1, Metabotropic glutamate receptor 4; test: Effective concentration against Metabotropic glutamate receptor 4
[5] = target: T1, Metabotropic glutamate receptor 4; test: Stimulation od [3H]phosphatidylinositol accumulation by rat Metabotropic glutamate receptor 4 co-expressed with Gqi9 protein in HEK 293 cells; format: functional, cell-based, HEK293

T1 sequence (P31423 whole entry): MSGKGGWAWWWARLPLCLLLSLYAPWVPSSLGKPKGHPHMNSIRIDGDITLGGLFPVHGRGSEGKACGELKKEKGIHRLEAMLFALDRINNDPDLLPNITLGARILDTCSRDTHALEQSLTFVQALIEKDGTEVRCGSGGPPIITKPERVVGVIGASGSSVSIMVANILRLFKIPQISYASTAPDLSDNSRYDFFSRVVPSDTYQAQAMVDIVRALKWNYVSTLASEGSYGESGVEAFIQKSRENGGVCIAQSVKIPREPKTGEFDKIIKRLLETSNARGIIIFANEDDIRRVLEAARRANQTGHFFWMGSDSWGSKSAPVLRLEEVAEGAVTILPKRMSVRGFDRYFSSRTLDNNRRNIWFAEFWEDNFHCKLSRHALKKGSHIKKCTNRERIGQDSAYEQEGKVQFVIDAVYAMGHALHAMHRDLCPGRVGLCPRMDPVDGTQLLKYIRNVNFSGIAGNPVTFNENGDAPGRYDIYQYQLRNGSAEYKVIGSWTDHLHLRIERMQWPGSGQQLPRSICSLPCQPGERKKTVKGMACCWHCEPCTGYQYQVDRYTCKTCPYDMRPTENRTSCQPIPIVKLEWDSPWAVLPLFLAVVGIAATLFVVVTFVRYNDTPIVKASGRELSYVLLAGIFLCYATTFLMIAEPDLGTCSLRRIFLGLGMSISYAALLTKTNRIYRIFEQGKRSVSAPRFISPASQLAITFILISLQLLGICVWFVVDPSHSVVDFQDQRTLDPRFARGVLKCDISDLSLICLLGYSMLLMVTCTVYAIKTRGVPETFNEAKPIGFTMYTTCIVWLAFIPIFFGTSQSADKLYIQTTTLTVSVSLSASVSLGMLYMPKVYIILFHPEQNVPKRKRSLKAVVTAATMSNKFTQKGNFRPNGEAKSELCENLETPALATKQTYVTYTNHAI
Chain of Metabotropic glutamate receptor 4 (Rattus norvegicus, UniProt P31423, D309A) (P31423 whole entry, looked up, stated change not applied): as the sequence (P31423 whole entry) above

| EC50 [1] [µM] | EC50 [2] [µM] | Structure (SMILES) | also measured |
| --- | --- | --- | --- |
| < 100 |  | N[C@H](C(=O)O)c1ccc(P(=O)(O)O)cc1 |  |
|  | > 100 | N[C@@H](CCn1oc(=O)[nH]c1=O)C(=O)O |  |
| < 100 |  | N[C@@]1(C(=O)O)C[C@H](C(=O)O)[C@H](C(=O)O)C1 |  |
|  | > 100 | N[C@@]1(C(=O)O)CN[C@@H](C(=O)O)C1 |  |
|  | > 100 | C[C@@H](C[C@@H](N)C(=O)O)C(=O)O |  |
| < 100 |  | N[C@H](CCC(=O)O)C(=O)O [D-GLUTAMATE] |  |
|  | > 100 | N[C@@]1(C(=O)O)CC[C@H]2[C@H](C(=O)O)[C@H]21 [EGLUMETAD] |  |

More lines, now with the values behind:

| Structure (SMILES) | EC50 [1] [µM] | EC50 [2] [µM] | also measured |
| --- | --- | --- | --- |
| N[C@H](C(=O)O)c1ccc(C(=O)O)c(C(=O)O)c1 | < 100 |  |  |
| N[C@H](Cn1oc(=O)[nH]c1=O)C(=O)O |  | > 100 |  |
| N[C@@H](CCS(=O)(=O)O)C(=O)O | < 100 |  |  |
| N[C@@]1(C(=O)O)CC[C@H](C(=O)O)C1 |  | > 100 |  |
| NC1(C(=O)O)C[C@H](C(=O)O)[C@@H](C(=O)O)C1 | < 100 |  |  |
| N[C@@H](CCP(=O)(O)O)C(=O)O | < 100 |  | EC50 [3]: 129 µM; EC50 [4]: 200 nM |
| N[C@@]1(C(=O)O)CC[C@@H](C(=O)O)C1 |  | > 100 |  |
| NC1(C(=O)O)CC2CC1C2C(=O)O (centres undefined) | < 100 |  |  |
| C=C(C[C@@H](N)C(=O)O)C(=O)O |  | > 100 |  |
| N[C@H](C(=O)O)c1cc(O)cc(O)c1 |  | > 100 |  |
| N[C@H](C(=O)O)c1ccc(C(=O)O)c(O)c1 |  | > 100 |  |
| N[C@H](C(=O)O)[C@@H]1C[C@H]1C(=O)O | < 100 |  |  |
| N[C@H](C(=O)O)C12CC(C(=O)O)(C1)C2 |  | > 100 | EC50 [5]: > 1 mM |
| N[C@@H](COP(=O)(O)O)C(=O)O [DEXFOSFOSERINE] | < 100 |  |  |
